Measured values reported in US20250082760A1 (priority 2020, published 2025).
Structures can show the parent of a compound that is named as a salt.

Columns and labels:
[1] = system: reserpine depression model mice; assay: forced swimming test in mice (reserpine depression model); format: in vivo, Kunming mice
Procedure: Experimental Drug, Animal, Grouping and Administration are Same as Sugar Water Preference Experiment Method.
Preparation of depression animal models, acute intraperitoneal injection of 6 mg/kg Res can cause a continuous decrease in monoamine neurotransmitters in the brain for 1 week, and depression-like behaviors last for 72 hours, it is often utilized for the preparation of depression models (Huang et al., 2004).
Forced swimming experiment process, the forced swimming experiment is an experiment in which animals are placed in an unavoidable stressful environment to detect the despair state of animal behavior (Porsolt et al., 1978). Male Kunming mice were selected and randomly divided into groups. Conduct in a quiet and enclosed behavioral observation room, with red lights for indoor lighting (25 lux). The experiment is divided into two stages, the first stage: adaptation experiment, 1 day before the test, 9:00-12:00 h, put the animals into the forced swimming test equipment (plexiglass drum: diameter 20 cm, height 25 cm, water depth 12 cm, water temperature 21-25° C., the upper side CCD camera is connected to the computer to record) after 15 minutes of adaptation, take it out, dry the hair with a towel and put it back into the cage. The second stage: testing experiment, animals in each group were put into the forced swimming bucket for 5 minutes at the same time period, and the behavioral activities during the testing period were tracked and recorded by digital cameras and then analyzed. Immobility time: The animal floats on the water surface, with no movement of the limbs or slight movement of the hind limbs to keep the head above the water surface. Evaluate depression like behavior by detecting the despair state of animals based on their immobility time.
(§1) Statistical analysis, the experimental data were analyzed by SPSS 19.0 statistical software, and all data were expressed as Means±SEM.

[2] = system: convulsions in mice induced by electrical stimulation; assay: anticonvulsant effect on mice induced by electrical stimulation; format: in vivo; conditions: compared with blank group
Procedure: (1) Divide 40 mice (20♀20) into 5 groups at random, with 8 mice (4♀4) in each group, and label No. 1 to No. 8 with picric acid respectively; (2) All mice were tested according to the order of groups and labels electrical stimulation, the initial voltage was 40V, the voltage was increased by 2.5V each time, the time interval between two electrical stimulations for the same mouse was 20 min, the threshold voltage value of convulsion and the time from convulsion to complete recovery were recorded, and the dead mice were discarded, qualified mice were screened; (3) After screening, 7 mice (2♀5) in the 40 mice could not recover after convulsions and died, and the remaining 33 qualified mice […]; (4) From standby 7 mice were screened out as a supplement, and the number of the dead mice in step (2) was marked with picric acid and added to the corresponding groups, so that a total of 40 (20♀20) qualified mice in 5 groups were finally obtained., all mice were weighed and recorded.
Positive drug: sodium valproate (specification 0.2 g), take 1 tablet in a mortar, add 20 ml of 0.5% CMC-Na solution while grinding, to a suspended state, set EP tube for use; test drug (compound 5): Dissolve in distilled water to 5, 10, and 20 mg/ml solutions, respectively, and set EP tubes for later use.
Electrical stimulation was performed 1.5 hours after the last administration, and each mouse was given the threshold voltage measured before to observe the experimental phenomenon and record whether there was convulsions and death occurred.
The first group was the blank control group, which was given 0.4 ml/20 g of 0.5% CMC-Na by gavage; the second group was the positive drug control group, which was given sodium valproate 200 mg/kg by gavage; the third group was the test drug the low-dose group, which was given 100 mg/kg of compound 5 by gavage; the fourth group was the test drug medium-dose group, which was given 200 mg/kg of compound 5 by gavage; the fifth group was the test drug high-dose group, which was given 400 mg/kg of compound 5 by gavage.
1.5 h after the last administration, electrical stimulation was performed according to the threshold voltage measured before each mouse, the experimental phenomenon was observed, and the occurrence of convulsions and death were recorded. If convulsion occurs, record the time of complete recovery; if no convulsion occurs, continue to increase the voltage with a gradient of 2.5V to measure the current threshold voltage value and recovery time.
Strictly follow the 5 periods of convulsion in mice, namely, latency period, rigid flexion period, hindlimb extension period, clonic period and recovery period to judge whether the mice have convulsions after electrical stimulation, and the phenomenon of death can not be recovered after convulsions.

[3] = system: righting reflex in mice; assay: mouse righting reflex test (sedative and hypnotic effects); format: in vivo, Kunming mice
Procedure: Experimental animals, SPF Kunming mice, male, 20-30 g, Laboratory Animal Center of Lanzhou University (certificate number: SCXK (Gan) 2018-0002), reared in separate cages, temperature, 22±1° C., humidity, 50%, automatic in the light-controlled 12 h/12 h light-dark cycle (light-on time 8:00 h, light-off time 20:00 h, light intensity ≈100 lux) environment, free food and activities, adapted to the experimental environment for 5 days.
as §1

[4] = system: reserpine-treated mice; assay: mouse sugar water preference test (reserpine depression model); format: in vivo, Kunming mice
Procedure: Experimental drug, clomipramine (CLI), sigma company, batch number: C7291, 10 mg/ml (10% DMSO); reserpine (Res), sigma company, batch number: 83580, 1 mg/ml (10% DMSO);
SPF adult male Kunming mice, 20-30 g, Laboratory Animal Center of Lanzhou University, animal certificate number: SCXK (Gan) 2018-0002, reared in separate cages, temperature 22±1° C., humidity […], 12 h/12 h light and dark cycle controlled by dynamic light (light-on time 8:000 h, light-off time 20:000 h, light intensity≈100 lux), animals could eat and move freely.
as §1

[5] = Res 6 mg/kg + compound 5 56 mg/kg i.p.
[6] = after Res 6 mg/kg i.p., CLI 50, Pro 25, A1P1 24 and 25, compound 5 56 mg/kg i.p.
[7] = intraperitoneal, compound 5 56 mg/kg, Pro 25 mg/kg, A1P1 24 and 25 mg/kg, Dia 5 mg/kg, n = 7, listed as compound 5, hydrochloride

SMILES: CC(C)c1cccc(C(C)C)c1OC(=O)CC1(CN(C)C)CCCCC1 [Compound 5, 2,6-diisopropylphenyl 2-(1-((dimethylamino)methyl)cyclohexyl)acetate hydrochloride]
- antidepressant effect (forced swimming test) [1, 5]: significant antidepressant effect
- forced immobility time compared with the Res+A1P1 group [1, 5]: shortened to a certain extent, but there was no significant difference
- forced immobility time compared with the Res+Pro group [1, 5]: shortened and there was a significant difference
- change of forced swimming immobility time compared with the Res+DMSO group [1, 6]: slightly shortened
- Forced swimming immobility time ([1]; after Res 6 mg/kg i.p., CLI 50, Pro 25, A1P1 24 and 25, compound 5 56 mg/kg i.p., 5 min test, Means±SEM, Res + DMSO 169.82 ± 11.22, DMSO 106.72 ± 16.49): 116.29 ± 22.23 s
- anti-electrical convulsion ability (threshold voltage increase) ([2]; 100 mg/kg gavage, p>0.05): no significant effect
- anti-electrical convulsion ability (threshold voltage increase) ([2]; 200 mg/kg gavage, p>0.05): no significant effect
- anti-electrical convulsion ability (threshold voltage increase) ([2]; 400 mg/kg gavage, p<0.01): significantly improve
- weight gain of mice ([2]; sodium valproate 200 mg/kg, compound 5 100, 200, 400 mg/kg gavage, p>0.05): no difference
- sedative effect ([3]; intraperitoneal 56 mg/kg, versus Pro and A1P1): better sedative effect
- Observation of activity and other phenomena ([3]; intraperitoneal, compound 5 56 mg/kg, Pro 25 mg/kg, A1P1 24 and 25 mg/kg, Dia 5 mg/kg, n = 7, hydrochloride): Reduced activity
- Disappearance time (latency of disappearance of the righting reflex) [3, 7]: did not disappear
- Observation of activity and other phenomena [3, 7]: significantly reduced
- antidepressant effect (sugar water preference test) [4, 5]: significant antidepressant effect
- change of preference for sugar water compared with the Res+DMSO group [4, 6]: rose significantly
- Sugar water preference (sugar water drinking amount/total drinking amount) ([4]; after Res 6 mg/kg i.p., CLI 50, Pro 25, A1P1 24 and 25, compound 5 56 mg/kg i.p., Means±SEM, Res + DMSO 0.642 ± 0.036, DMSO 0.901 ± 0.026): 0.894 ± 0.028
